According to the supplement of paper PMC10627819:

Legend:
S. aureus Newman [1] = experiment: fitness (endpoint OD595 vs no drug) (fraction); higher = more growth
Method in brief: (§1)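 Fitness was defined as the optical density at the transition into stationary phase relative to the robust mean of no-drug control wells. Values were capped at 1. Cultures were started at OD595 0.01 in 384-well plates (30 µl, or 55 µl for S. pneumoniae) in TSB, LB Lennox or CY at 37 °C. OD595 was recorded every 30 min over 14 h, with the first reading subtracted as background.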

S. pneumoniae D39V [2] = experiment: as above
Method in brief: as §1

B. subtilis 168 = experiment: Bliss interaction score (quartile over a dose matrix) (fitness difference); higher = more antagonism (negative = synergy)
Method in brief: (§2)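 The Bliss score is observed fitness minus expected fitness, where the expected value is the product of single-drug fitness values inferred from combination data. Fitness is OD595 at entry into stationary phase normalised to the plate's robust no-drug mean and capped at 1. Scores are reported as quartiles spanning technical, biological and donor/recipient replicates.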

S. aureus DSM 20231 = experiment: as above
Method in brief: as §2

S. aureus Newman [3] = experiment: as above
Method in brief: as §2

S. pneumoniae D39V [4] = experiment: as above
Method in brief: as §2
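Throughout, for Bliss interaction score (quartile over a dose matrix): first quartile when negative (synergy) and third quartile when positive (antagonism).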

CC1=C(C(=O)O)N2C(=O)[C@@H](NC(=O)[C@H](N)c3ccccc3)[C@H]2SC1 [Cephalexin] + CN[C@H](CC(C)C)C(=O)N[C@H]1C(=O)N[C@@H](CC(N)=O)C(=O)N[C@H]2C(=O)N[C@H]3C(=O)N[C@H](C(=O)N[C@H](C(=O)O)c4cc(O)cc(O)c4-c4cc3ccc4O)[C@H](O)c3ccc(c(Cl)c3)Oc3cc2cc(c3O[C@@H]2O[C@H](CO)[C@@H](O)[C@H](O)[C@H]2O[C@H]2C[C@](C)(N)[C@H](O)[C@H](C)O2)Oc2ccc(cc2Cl)[C@H]1O [Vancomycin]
fitness
Conditions | first compound 0.25 µg/mL | first compound 0.5 µg/mL | first compound 1 µg/mL | first compound 2 µg/mL | first compound 4 µg/mL
S. aureus Newman [1], partner 0.1875 µg/mL | ≥ 1 | 0.997 | ≥ 1 | – | –
S. aureus Newman [1], partner 0.375 µg/mL | 0.997 | ≥ 1 | ≥ 1 | – | –
S. aureus Newman [1], partner 0.75 µg/mL | ≥ 1 | ≥ 1 | ≥ 1 | – | –
S. pneumoniae D39V [2], partner 0.03125 µg/mL | – | – | – | 0.0634 | 0.0468
S. pneumoniae D39V [2], partner 0.0625 µg/mL | – | – | – | 0.0312 | 0.0227
S. pneumoniae D39V [2], partner 0.125 µg/mL | – | – | 0.282 | 0.0467 | 0.0467

fitness, S. pneumoniae D39V [2], one replicate
Conditions | first compound 0.125 µg/mL | first compound 0.25 µg/mL | first compound 0.5 µg/mL
partner 0.125 µg/mL | 0.824 | 0.936 | ≥ 1
partner 0.25 µg/mL | 0.165 | 0.383 | 0.428
partner 0.5 µg/mL | 0.0735 | 0.0702 | 0.105

Conditions | Bliss interaction score
B. subtilis 168 | -0.0548
S. aureus DSM 20231 | 0.0385
S. aureus Newman [3] | 0.0402
S. pneumoniae D39V [4] | -0.207

CNC(C)C1CCC(N)C(OC2C(N)CC(N)C(OC3OCC(C)(O)C(NC)C3O)C2O)O1 (stereo unspecified) [Gentamicin] + CCCCCCCCCC(=O)N[C@@H]1[C@H]([C@@H]([C@H](O[C@H]1OC2=C3C=C4C=C2OC5=C(C=C(C=C5)[C@H]([C@H]6C(=O)N[C@@H](C7=C(C(=CC(=C7)O)OC8[C@H]([C@H]([C@@H]([C@H](O8)CO)O)O)O)C9=C(C=CC(=C9)[C@H](C(=O)N6)NC(=O)[C@@H]4NC(=O)[C@@H]1C2=CC(=CC(=C2)OC2=C(C=CC(=C2)[C@H](C(=O)N[C@H](CC2=CC(=C(O3)C=C2)Cl)C(=O)N1)N)O)O)O)C(=O)O)O[C@H]1[C@@H]([C@H]([C@@H]([C@H](O1)CO)O)O)NC(=O)C)Cl)CO)O)O [Teicoplanin]
fitness, S. aureus Newman [1], one replicate, main component drawn
Conditions | first compound 0.375 µg/mL | first compound 0.75 µg/mL | first compound 1 µg/mL | first compound 1.5 µg/mL | first compound 2 µg/mL | first compound 4 µg/mL
partner 0.1562 µg/mL | ≥ 1 | ≥ 1 | – | ≥ 1 | – | –
partner 0.3125 µg/mL | ≥ 1 | ≥ 1 | – | ≥ 1 | – | –
partner 0.62 µg/mL | – | – | 0.748 | – | 0.37 | 0.0704
partner 0.625 µg/mL | 0.861 | 0.851 | – | 0.875 | – | –
partner 1.24 µg/mL | – | – | 0.616 | – | 0.0206 | 0.0307
partner 2.48 µg/mL | – | – | 0.0707 | – | 0.0793 | 0.0765

fitness, S. aureus Newman [1], main component drawn
Conditions | first compound 0.5 µg/mL | first compound 1 µg/mL | first compound 2 µg/mL
partner 0.1562 µg/mL | ≥ 1 | ≥ 1 | ≥ 1
partner 0.3125 µg/mL | ≥ 1 | ≥ 1 | ≥ 1
partner 0.625 µg/mL | ≥ 1 | ≥ 1 | ≥ 1

main component drawn
Conditions | Bliss interaction score
B. subtilis 168 | -0.13
S. aureus DSM 20231 | -0.0694
S. aureus Newman [3] | -0.0337
S. pneumoniae D39V [4] | 0.0694

CNC(C)C1CCC(N)C(OC2C(N)CC(N)C(OC3OCC(C)(O)C(NC)C3O)C2O)O1 (stereo unspecified) [Gentamicin] + CN[C@H](CC(C)C)C(=O)N[C@H]1C(=O)N[C@@H](CC(N)=O)C(=O)N[C@H]2C(=O)N[C@H]3C(=O)N[C@H](C(=O)N[C@H](C(=O)O)c4cc(O)cc(O)c4-c4cc3ccc4O)[C@H](O)c3ccc(c(Cl)c3)Oc3cc2cc(c3O[C@@H]2O[C@H](CO)[C@@H](O)[C@H](O)[C@H]2O[C@H]2C[C@](C)(N)[C@H](O)[C@H](C)O2)Oc2ccc(cc2Cl)[C@H]1O [Vancomycin]
fitness, S. aureus Newman [1], one replicate, main component drawn
Conditions | first compound 0.375 µg/mL | first compound 0.75 µg/mL | first compound 1.5 µg/mL
partner 0.1875 µg/mL | ≥ 1 | ≥ 1 | 0.261
partner 0.375 µg/mL | ≥ 1 | ≥ 1 | 0.0474
partner 0.75 µg/mL | ≥ 1 | ≥ 1 | 0.0659

fitness, main component drawn
Conditions | first compound 0.5 µg/mL | first compound 1 µg/mL | first compound 2 µg/mL | first compound 4 µg/mL | first compound 8 µg/mL
S. aureus Newman [1], partner 0.1875 µg/mL | 0.991 | 0.988 | – | – | –
S. aureus Newman [1], partner 0.375 µg/mL | 0.981 | 0.996 | ≥ 1 | – | –
S. aureus Newman [1], partner 0.75 µg/mL | 0.999 | ≥ 1 | ≥ 1 | – | –
S. pneumoniae D39V [2], partner 0.03125 µg/mL | – | – | 0.974 | ≥ 1 | 0.98
S. pneumoniae D39V [2], partner 0.0625 µg/mL | – | – | 0.949 | 0.977 | 0.952
S. pneumoniae D39V [2], partner 0.125 µg/mL | – | – | 0.891 | 0.922 | 0.925
S. pneumoniae D39V [2], partner 0.25 µg/mL | – | – | 0.0786 | 0.0692 | 0.0847
S. pneumoniae D39V [2], partner 0.5 µg/mL | – | – | 0.0666 | 0.052 | 0.0832

main component drawn
Conditions | Bliss interaction score
B. subtilis 168 | 0.0451
S. aureus DSM 20231 | 0.0984
S. aureus Newman [3] | 0.0347
S. pneumoniae D39V [4] | -0.0655
